Where a name gives a salt, the structure may show the parent alone.

T1 sequence (P51681 whole entry): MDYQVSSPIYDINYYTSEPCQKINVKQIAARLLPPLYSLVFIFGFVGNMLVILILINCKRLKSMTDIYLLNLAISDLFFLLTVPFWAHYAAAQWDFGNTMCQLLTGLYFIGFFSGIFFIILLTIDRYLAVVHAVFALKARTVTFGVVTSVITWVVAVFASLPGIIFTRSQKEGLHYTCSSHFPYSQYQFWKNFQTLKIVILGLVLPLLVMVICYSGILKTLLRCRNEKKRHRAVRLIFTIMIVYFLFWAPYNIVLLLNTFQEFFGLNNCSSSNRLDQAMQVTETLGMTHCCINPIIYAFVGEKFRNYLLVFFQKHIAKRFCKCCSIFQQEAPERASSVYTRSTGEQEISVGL

This assay addresses T1, CCR5 (Homo sapiens, UniProt P51681).
T1 construct: host or cells: CEM-NKr-CCR5-Luc
The experiment in a line: CCR5-Mediated CCF Assay. The assay is classed as cell-based. Conditions: Hela-R5 cells (gp160 from R5-tropic virus, HIV-1 Tat) co-cultured 24 hrs with CEM-NKr-CCR5-Luc cells; luciferase readout. How it is done:
CCF assay was performed as described before (C. Ji, J. Zhang, N. Cammack and S. Sankuratri, J. Biomol. Screen. 2006 11(6):652-663). Hela-R5 cells (express gp160 from R5-tropic virus and HIV-1 Tat) were plated in 384 well white culture plates (BD Bioscience, Palo Alto, Calif.) at 7.5×10^3 cells per well in phenol red-free Dulbecco's Modified Eagle Medium (DMEM) supplemented with 10% FBS, 1× Pen-Strep, 300 μg/mL G418, 100 μg/mL hygromycin, and 1 μg/mL Doxycycline (Dox) (BD Bioscience, Palo Alto, Calif.), using Multimek (Beckman, Fullerton, Calif.) and incubated at 37° C. overnight to induce the expression of gp160. Ten μL diluted compounds in medium containing 5% DMSO were added to the cells, followed by the addition of CEM-NKr-CCR5-Luc (obtained from NIH AIDS Research & Reference Reagents Program) that expresses CD4 and CCR5 and carries a HIV-2 long terminal repeat (LTR)-driven luciferase reporter gene at 1.5×10^4 cells/15 μL/well and incubated for 24 hrs. At the end of co-culture, 15 μL of Steady-Glo luciferase substrate was added into each well, and the cultures were sealed and gently shaken for 45 min. The luciferase activity were measured for 10 sec per well as luminescence by using 16-channel TopCount NXT (PerkinElmer, Shelton, Conn.) with 10 min dark adaptation and the readout is count per second (CPS). For the drug interaction experiments, small molecule compounds or antibodies were serially diluted in serum-free and phenol red-free RPMI containing 5% DMSO (CalBiochem, La Jolla, Calif.) and 1× Pen-Strep. Five μL each of the two diluted compound or mAb to be tested for drug-drug interactions were added to the Hela-R5 cells right before the addition of target cells.
The molecule `Cc1ccc(N(CCCN2CC3CN(C(=O)c4c(C)cccc4C)CC3C2)C(=O)[C@@H]2CC[C@H](C(=O)O)C2)cc1Cl` (stereo partly drawn) [I-4, (1S,3R)-3-((3-Chloro-4-methyl-phenyl)-{3-[5-(2,6-dimethyl-benzoyl)-hexahydro-pyrrolo[3,4-c]pyrrol-2-yl]-propyl}-carbamoyl)-cyclopentanecarboxylic acid, trifluoro-acetate salt] registered an IC50 of 9.8 nM. With `Cc1ccnc(C)c1C(=O)N1CC2CN(CC[C@H](NC(=O)C3CCC(=O)C3)c3cccc(F)c3)CC2C1` (stereo partly drawn) [I-23, 3-Oxo-cyclopentanecarboxylic acid [(S)-3-[5-(2,4-dimethyl-pyridine-3-carbonyl)-hexahydro-pyrrolo[3,4-c]pyrrol-2-yl]-1-(3-fluoro-phenyl)-propyl]-amide] the figure was 7.4 nM; with `Cc1ncnc(C)c1C(=O)N1CC2CN(CC[C@H](NC(=O)C3CCCC(=O)C3)c3cccc(F)c3)CC2C1` (stereo partly drawn) [I-24, 3-Oxo-cyclohexanecarboxylic acid [(S)-3-[5-(4,6-dimethyl-pyrimidine-5-carbonyl)-hexahydro-pyrrolo[3,4-c]pyrrol-2-yl]-1-(3-fluoro-phenyl)-propyl]-amide], 6.5 nM; with `COC(=O)[C@H]1CC[C@@H](C(=O)N(CCCN2C[C@@H]3CN(C(=O)c4c(C)ncnc4C)C[C@@H]3C2)c2ccc(C)c(Cl)c2)CC1` [I-31], 3.5 nM.

Consider `Cc1cccc(C)c1C(=O)N1CC2CN(CC[C@H](NC(=O)C3CCCC3C(=O)O)c3ccccc3)CC2C1` (stereo partly drawn) [I-33, 2-{(S)-3-[5-(2,6-Dimethyl-benzoyl)-hexahydro-pyrrolo[3,4-c]pyrrol-2-yl]-1-phenyl-propylcarbamoyl}-cyclopentanecarboxylic acid], for which half-maximal inhibition (IC50) required 1.7 nM.

In general, IC50 refers to the point on the concentration scale where inhibition reaches its midpoint. Higher therefore signals a need for much substance.
